Experimental data: PMC6757289, “Design and Characterization of SGK3-PROTAC1, an Isoform Specific SGK3 Kinase PROTAC Degrader” (ACS Chemical Biology, 2019)
Where two headings read alike, the source gives them in different places.

Tests used:
Assay in all cases: kinase profiling panel
Format in all cases: biochemical
Conditions in all cases: read-out: % Activity Remaining
[1] = biological target: EF2K (Homo sapiens, UniProt O00418)
Text: (§1) Protein kinase profiling against a Dundee panel of 140 protein kinases was undertaken at the International Centre for Protein Kinase Profiling. The result for each kinase was presented as a mean kinase activity of the reaction taken in triplicate relative to a control sample treated with DMSO. Assay conditions and abbreviations are available at http://www.kinase-screen.mrc.ac.uk.

[2] = biological target: T1, IRAK4 (Homo sapiens, UniProt Q9NWZ3)
T1 sequence (Q9NWZ3 1-460): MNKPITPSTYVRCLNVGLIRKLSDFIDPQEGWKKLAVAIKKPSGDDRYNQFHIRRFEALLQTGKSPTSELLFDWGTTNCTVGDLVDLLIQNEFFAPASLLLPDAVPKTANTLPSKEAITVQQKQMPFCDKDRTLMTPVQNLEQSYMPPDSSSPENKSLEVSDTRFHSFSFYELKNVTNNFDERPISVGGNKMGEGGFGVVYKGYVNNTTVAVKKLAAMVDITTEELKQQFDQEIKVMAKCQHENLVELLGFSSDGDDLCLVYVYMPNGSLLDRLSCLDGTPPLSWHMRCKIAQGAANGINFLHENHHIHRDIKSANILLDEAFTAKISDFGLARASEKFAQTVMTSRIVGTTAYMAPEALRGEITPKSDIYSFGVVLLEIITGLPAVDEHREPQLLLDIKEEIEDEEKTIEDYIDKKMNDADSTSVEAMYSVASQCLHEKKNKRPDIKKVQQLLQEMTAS
Text: as §1

[3] = biological target: MAPKAP-K3 (Homo sapiens, UniProt Q16644)
Chain of MAPKAP-K3 (Q16644 whole entry): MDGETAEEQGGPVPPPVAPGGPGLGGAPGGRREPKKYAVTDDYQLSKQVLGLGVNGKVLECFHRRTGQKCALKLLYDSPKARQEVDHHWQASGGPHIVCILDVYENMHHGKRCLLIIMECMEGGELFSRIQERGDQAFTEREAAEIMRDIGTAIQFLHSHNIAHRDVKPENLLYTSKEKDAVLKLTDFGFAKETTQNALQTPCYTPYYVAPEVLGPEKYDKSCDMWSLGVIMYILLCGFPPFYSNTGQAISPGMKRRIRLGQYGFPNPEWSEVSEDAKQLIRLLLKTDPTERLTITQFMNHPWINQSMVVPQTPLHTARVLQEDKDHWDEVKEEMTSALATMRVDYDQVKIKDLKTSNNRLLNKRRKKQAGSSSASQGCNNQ
Text: as §1

[4] = biological target: MELK (Homo sapiens, UniProt Q14680)
Chain of MELK (Q14680 whole entry): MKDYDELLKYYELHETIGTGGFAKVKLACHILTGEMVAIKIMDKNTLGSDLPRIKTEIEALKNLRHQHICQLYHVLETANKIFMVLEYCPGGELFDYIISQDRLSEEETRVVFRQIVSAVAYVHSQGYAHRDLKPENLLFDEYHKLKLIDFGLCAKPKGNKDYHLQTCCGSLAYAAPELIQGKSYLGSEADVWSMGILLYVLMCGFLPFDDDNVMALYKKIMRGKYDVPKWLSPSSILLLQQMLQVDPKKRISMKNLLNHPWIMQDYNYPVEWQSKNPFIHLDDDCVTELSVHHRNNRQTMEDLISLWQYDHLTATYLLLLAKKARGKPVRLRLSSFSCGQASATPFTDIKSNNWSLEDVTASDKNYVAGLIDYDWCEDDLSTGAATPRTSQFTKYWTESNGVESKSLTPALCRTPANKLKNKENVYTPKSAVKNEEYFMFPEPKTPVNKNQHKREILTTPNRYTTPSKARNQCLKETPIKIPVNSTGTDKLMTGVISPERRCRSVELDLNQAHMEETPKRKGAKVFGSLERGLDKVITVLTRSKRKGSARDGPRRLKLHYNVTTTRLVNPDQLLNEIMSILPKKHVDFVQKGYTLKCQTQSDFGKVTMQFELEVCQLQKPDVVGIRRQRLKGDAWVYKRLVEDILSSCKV
Text: as §1

[5] = biological target: MLK1 (Homo sapiens, UniProt P80192)
Chain of MLK1 (P80192 whole entry): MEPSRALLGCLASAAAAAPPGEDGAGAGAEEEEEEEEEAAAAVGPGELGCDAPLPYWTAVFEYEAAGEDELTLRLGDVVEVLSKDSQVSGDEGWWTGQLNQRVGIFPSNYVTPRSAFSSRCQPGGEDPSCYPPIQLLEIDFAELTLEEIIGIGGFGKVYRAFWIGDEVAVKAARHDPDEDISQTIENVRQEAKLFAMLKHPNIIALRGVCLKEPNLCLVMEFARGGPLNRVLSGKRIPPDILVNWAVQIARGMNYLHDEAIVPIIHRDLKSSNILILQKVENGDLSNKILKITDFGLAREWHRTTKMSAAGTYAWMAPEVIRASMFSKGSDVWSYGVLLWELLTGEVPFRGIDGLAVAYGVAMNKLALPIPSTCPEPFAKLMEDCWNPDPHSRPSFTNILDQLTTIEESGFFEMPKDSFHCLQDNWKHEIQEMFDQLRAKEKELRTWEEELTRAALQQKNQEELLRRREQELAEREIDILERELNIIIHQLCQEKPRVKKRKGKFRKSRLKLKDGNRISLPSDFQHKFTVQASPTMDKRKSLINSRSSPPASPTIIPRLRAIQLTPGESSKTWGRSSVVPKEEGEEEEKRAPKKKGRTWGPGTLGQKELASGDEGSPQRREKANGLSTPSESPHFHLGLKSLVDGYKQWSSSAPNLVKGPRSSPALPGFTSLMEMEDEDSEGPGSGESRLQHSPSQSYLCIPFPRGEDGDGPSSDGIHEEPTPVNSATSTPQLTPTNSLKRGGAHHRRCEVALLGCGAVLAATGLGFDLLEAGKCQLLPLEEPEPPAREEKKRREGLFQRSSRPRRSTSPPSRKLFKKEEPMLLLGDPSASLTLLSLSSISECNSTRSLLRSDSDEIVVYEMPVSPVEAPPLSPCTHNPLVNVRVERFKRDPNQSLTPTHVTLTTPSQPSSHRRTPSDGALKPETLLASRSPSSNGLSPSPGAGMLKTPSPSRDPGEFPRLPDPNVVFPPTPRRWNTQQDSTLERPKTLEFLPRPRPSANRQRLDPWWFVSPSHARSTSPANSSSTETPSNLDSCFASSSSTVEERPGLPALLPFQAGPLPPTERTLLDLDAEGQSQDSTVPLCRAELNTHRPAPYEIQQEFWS
Text: as §1

[6] = biological target: PKB alpha (Homo sapiens, UniProt P31749)
Chain of PKB alpha (P31749 whole entry): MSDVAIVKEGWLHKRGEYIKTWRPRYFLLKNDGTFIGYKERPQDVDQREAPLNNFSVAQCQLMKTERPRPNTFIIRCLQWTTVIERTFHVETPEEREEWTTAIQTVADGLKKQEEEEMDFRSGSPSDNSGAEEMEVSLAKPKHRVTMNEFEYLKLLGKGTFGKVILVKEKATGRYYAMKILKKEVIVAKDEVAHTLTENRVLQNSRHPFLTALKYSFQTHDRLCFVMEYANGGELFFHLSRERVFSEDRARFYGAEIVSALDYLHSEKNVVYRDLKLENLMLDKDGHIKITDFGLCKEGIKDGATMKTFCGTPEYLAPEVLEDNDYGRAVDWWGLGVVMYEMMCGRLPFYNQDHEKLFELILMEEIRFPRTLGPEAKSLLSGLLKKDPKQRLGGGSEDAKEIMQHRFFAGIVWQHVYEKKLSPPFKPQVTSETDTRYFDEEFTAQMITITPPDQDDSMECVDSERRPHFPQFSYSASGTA
Text: as §1

[7] = biological target: ROCK 2 (Homo sapiens, UniProt O75116)
Text: as §1

[8] = biological target: TIE2 (Homo sapiens, UniProt Q02763)
Chain of TIE2 (Q02763 23-1124): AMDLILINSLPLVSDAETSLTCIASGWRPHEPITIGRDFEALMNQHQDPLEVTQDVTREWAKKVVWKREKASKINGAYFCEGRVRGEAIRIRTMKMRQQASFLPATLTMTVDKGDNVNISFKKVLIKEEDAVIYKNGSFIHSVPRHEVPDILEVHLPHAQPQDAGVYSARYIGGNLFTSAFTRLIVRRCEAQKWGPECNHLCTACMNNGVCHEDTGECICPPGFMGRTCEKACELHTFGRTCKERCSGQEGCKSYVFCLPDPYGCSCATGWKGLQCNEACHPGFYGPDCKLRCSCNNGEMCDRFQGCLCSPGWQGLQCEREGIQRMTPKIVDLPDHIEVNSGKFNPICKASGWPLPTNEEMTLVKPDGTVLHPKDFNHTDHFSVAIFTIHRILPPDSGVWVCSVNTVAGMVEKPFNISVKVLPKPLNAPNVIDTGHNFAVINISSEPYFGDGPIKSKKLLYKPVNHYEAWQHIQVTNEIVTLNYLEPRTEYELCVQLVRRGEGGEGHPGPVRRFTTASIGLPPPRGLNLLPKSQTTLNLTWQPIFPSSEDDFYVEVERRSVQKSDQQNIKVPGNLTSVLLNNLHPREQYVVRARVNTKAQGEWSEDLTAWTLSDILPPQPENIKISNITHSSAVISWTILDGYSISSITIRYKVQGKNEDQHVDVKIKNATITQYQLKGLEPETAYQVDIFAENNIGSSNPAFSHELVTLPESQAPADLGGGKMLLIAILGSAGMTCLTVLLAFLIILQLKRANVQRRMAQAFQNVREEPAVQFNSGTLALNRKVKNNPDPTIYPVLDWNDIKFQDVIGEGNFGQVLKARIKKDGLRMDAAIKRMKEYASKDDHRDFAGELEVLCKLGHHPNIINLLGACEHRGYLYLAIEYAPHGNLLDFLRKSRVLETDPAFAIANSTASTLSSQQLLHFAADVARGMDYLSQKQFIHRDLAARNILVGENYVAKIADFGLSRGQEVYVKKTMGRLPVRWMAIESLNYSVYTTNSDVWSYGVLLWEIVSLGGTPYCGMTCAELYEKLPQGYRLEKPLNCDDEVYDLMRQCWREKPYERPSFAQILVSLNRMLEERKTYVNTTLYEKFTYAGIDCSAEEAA
Text: as §1

[9] = biological target: T2, TSSK1 (Homo sapiens, UniProt Q9BXA7)
T2 sequence (Q9BXA7 1-367): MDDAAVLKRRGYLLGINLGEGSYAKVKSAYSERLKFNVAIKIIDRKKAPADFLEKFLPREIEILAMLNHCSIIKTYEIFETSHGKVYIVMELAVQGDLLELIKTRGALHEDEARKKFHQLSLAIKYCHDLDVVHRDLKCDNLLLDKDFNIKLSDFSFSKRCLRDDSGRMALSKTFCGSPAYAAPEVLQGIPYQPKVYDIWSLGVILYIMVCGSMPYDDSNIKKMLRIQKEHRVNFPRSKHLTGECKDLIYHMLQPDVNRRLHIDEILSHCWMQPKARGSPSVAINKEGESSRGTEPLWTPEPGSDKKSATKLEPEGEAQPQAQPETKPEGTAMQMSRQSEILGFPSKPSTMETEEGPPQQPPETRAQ
Text: as §1

[10] = biological target: TTBK1 (Homo sapiens, UniProt Q5TCY1)
Text: as §1

[11] = biological target: T3, TTK (Homo sapiens, UniProt P33981)
T3 sequence (P33981 1-857): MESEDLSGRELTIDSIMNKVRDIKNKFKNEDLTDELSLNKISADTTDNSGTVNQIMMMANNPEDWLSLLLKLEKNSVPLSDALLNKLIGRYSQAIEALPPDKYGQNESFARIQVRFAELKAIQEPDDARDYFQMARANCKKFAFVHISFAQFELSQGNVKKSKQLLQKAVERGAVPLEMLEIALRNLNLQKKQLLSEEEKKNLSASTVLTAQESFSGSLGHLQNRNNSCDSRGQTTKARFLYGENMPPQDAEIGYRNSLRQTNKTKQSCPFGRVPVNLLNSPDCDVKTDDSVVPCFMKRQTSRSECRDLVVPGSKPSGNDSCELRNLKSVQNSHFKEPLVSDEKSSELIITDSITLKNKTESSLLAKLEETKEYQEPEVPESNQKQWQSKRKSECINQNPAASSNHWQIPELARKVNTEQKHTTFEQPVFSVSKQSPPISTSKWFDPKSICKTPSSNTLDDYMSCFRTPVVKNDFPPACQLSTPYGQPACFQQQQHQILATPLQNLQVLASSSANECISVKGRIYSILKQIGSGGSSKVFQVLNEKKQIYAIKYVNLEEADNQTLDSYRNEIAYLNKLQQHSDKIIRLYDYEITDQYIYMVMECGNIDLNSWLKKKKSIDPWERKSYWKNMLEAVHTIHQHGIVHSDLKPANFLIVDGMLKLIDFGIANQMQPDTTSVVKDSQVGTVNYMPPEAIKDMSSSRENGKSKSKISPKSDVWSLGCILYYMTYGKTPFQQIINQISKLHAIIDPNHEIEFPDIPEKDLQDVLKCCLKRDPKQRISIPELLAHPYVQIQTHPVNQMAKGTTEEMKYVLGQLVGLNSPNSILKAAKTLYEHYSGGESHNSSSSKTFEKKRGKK
Text: as §1

[12] = biological target: YES1 (Homo sapiens, UniProt P07947)
Chain of YES1 (P07947 whole entry): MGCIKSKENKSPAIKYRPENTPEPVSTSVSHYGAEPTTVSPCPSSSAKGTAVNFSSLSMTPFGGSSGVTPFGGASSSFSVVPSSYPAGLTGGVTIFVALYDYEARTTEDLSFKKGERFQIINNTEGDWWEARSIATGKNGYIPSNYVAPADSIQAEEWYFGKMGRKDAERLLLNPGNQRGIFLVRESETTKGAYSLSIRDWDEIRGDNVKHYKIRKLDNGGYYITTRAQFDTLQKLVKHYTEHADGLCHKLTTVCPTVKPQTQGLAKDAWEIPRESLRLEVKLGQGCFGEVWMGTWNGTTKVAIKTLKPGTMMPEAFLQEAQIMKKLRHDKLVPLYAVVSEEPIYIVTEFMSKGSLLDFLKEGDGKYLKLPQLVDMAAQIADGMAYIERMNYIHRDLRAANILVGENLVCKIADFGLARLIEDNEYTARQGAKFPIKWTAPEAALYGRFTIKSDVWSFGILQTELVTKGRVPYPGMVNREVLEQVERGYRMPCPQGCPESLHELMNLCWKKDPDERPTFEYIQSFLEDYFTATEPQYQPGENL
Text: as §1

[13] = biological target: p38 alpha MAPK (Homo sapiens, UniProt Q16539)
Chain of p38 alpha MAPK (Q16539 whole entry): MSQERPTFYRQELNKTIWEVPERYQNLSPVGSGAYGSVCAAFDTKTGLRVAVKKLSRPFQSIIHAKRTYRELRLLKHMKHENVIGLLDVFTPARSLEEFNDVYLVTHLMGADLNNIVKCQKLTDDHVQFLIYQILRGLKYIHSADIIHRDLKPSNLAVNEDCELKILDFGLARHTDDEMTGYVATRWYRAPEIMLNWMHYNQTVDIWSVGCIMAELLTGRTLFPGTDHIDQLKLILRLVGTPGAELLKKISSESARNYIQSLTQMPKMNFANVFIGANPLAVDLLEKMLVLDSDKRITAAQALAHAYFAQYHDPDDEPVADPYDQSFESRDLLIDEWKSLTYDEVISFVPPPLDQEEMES
Text: as §1

| Compound | remaining activity at 1 µM [1] | remaining activity at 1 µM [2] | remaining activity at 1 µM [3] | remaining activity at 1 µM [4] | remaining activity at 1 µM [5] | remaining activity at 1 µM [6] | remaining activity at 1 µM [7] | remaining activity at 1 µM [8] | remaining activity at 1 µM [9] | remaining activity at 1 µM [11] | remaining activity at 1 µM [12] | remaining activity at 1 µM [13] | remaining activity at 1 µM ([10]; 1 µM) | remaining activity at 1 µM ([1]; 1 µM) | remaining activity at 1 µM ([2]; 1 µM) | remaining activity at 1 µM ([3]; 1 µM) | remaining activity at 1 µM ([4]; 1 µM) | remaining activity at 1 µM ([5]; 1 µM) | remaining activity at 1 µM ([6]; 1 µM) | remaining activity at 1 µM ([7]; 1 µM) | other results |
| --- | --- | --- | --- | --- | --- | --- | --- | --- | --- | --- | --- | --- | --- | --- | --- | --- | --- | --- | --- | --- | --- |
| COc1ccc(Cl)c(S(=O)(=O)Nc2ccc(-c3nc(OC[C@H]4CNCCO4)c4c(C)n[nH]c4n3)cc2)c1 [290-R, reference compound] | 112% | 74% | 105% | 11% | 9% | 49% | 105% | 17% | 98% | 76% | 92% | 111% |  |  |  |  |  |  |  |  | remaining activity at 1 µM [10]: 109% |
| Cc1ccc(F)c(S(=O)(=O)Nc2ccc(-c3nc(OC[C@H]4CNCCO4)c4cn[nH]c4n3)cc2)c1 [308-R, reference compound] | 128% | 105% | 83% | 19% | 16% | 96% | 74% | 51% | 94% | 91% | 71% | 88% | 91% |  |  |  |  |  |  |  |  |
| Cc1ccc(F)c(S(=O)(=O)Nc2ccc(-c3nc(OC[C@H]4CN(CCCCCCOCCOCCOCC(=O)N[C@H](C(=O)N5C[C@H](O)C[C@H]5C(=O)NCc5ccc(-c6scnc6C)cc5)C(C)(C)C)CCO4)c4cn[nH]c4n3)cc2)c1 [SGK3-PROTAC1] |  |  |  |  |  |  |  |  |  |  |  |  | 105% | 98% | 114% | 79% | 91% | 82% | 105% | 113% | remaining activity at 1 µM ([8]; 1 µM): 64%; remaining activity at 1 µM ([9]; 1 µM): 115%; remaining activity at 1 µM ([11]; 1 µM): 89%; remaining activity at 1 µM ([12]; 1 µM): 108%; remaining activity at 1 µM ([13]; 1 µM): 125% |
| Cc1ccc(F)c(S(=O)(=O)Nc2ccc(-c3nc(OC[C@H]4CN(CCCCCCOCCOCCOCC(=O)N[C@H](C(=O)N5C[C@@H](O)C[C@H]5C(=O)NCc5ccc(-c6scnc6C)cc5)C(C)(C)C)CCO4)c4cn[nH]c4n3)cc2)c1 [cisSGK3-PROTAC1] |  |  |  |  |  |  |  |  |  |  |  |  | 113% | 105% | 98% | 77% | 100% | 94% | 117% | 119% | remaining activity at 1 µM ([8]; 1 µM): 81%; remaining activity at 1 µM ([9]; 1 µM): 113%; remaining activity at 1 µM ([11]; 1 µM): 99%; remaining activity at 1 µM ([12]; 1 µM): 105%; remaining activity at 1 µM ([13]; 1 µM): 109% |
